The source made the active and inactive calls. The calls are words filed in the database; no cut-off is given here.
Assays:
HCT-116 [1] = assay: Antiproliferative activity against human HCT-116 cells measured after 72 hrs; type: functional, cell-based; settings: HCT-116, 72 h
MCF7 = assay: Antiproliferative activity against human MCF7 cells measured after 72 hrs; type: functional, cell-based; settings: MCF7, 72 h
A549 = assay: Antiproliferative activity against human A549 cells measured after 72 hrs; type: functional, cell-based; settings: A549, 72 h
SW480 = assay: Antiproliferative activity against human SW480 cells measured after 72 hrs; type: functional, cell-based; settings: SW480, 72 h
HCT-116 [2] = assay: Induction of apoptosis in human HCT-116 cells assessed as apoptotic cells at 200 nM measured after 48 hrs by Annexin-FITC/propidium iodide staining based flow cytometry relative to control; type: functional
Homo sapiens [3] = species on record: Homo sapiens; assay: Selectivity ratio of IC50 for HDAC6 (unknown origin) to IC50 for HDAC1 (unknown origin)
[4] = biological target: T1, Histone deacetylase 1/2/3 (Homo sapiens) (UniProt Q13547+O15379+Q92769); assay: Inhibition of HDAC1/HDAC2/HDAC3 in human HCT-116 cells assessed as increase in accumulation of acetylated histone H3 measured after 48 hrs by Western blot analysis; type: cell-based; settings: dose 200-800 nM, DDE = dose-dependent effect
HCT-116 [5] = assay: Induction of apoptosis in human HCT-116 cells assessed as appearance of smaller nuclei measured after 48 hrs by Hoechst 33342 staining based assay; type: functional, cell-based; settings: dose 50-200 nM, DDE = dose-dependent effect
HCT-116 [6] = assay: Induction of apoptosis in human HCT-116 cells assessed as chromatin condensation measured after 48 hrs by Hoechst 33342 staining based assay; type: functional, cell-based; settings: dose 50-200 nM, DDE = dose-dependent effect
Homo sapiens [7] = species on record: Homo sapiens; assay: Selectivity ratio of IC50 for HDAC6 (unknown origin) to IC50 for HDAC3 (unknown origin)
HCT-116 [8] = assay: Induction of apoptosis in human HCT-116 cells assessed as apoptotic cells at 100 nM measured after 48 hrs by Annexin-FITC/propidium iodide staining based flow cytometry relative to control; type: functional
HCT-116 [9] = assay: Cell cycle arrest in human HCT-116 cells assessed as increase in accumulation at G2/M phase measured after 48 hrs by propidium iodide staining based flow cytometry; type: functional; settings: dose 50-200 nM, DDE = dose-dependent effect
HCT-116 [10] = assay: Antimigratory activity against human HCT-116 cells at 25 nM measured after 48 hrs by wound healing assay; type: functional, cell-based
[11] = Selectivity index, ratio of IC50 for human L02 cells to IC50 for human A549 cells; type: toxicity; settings: L02 cells and A549 cells, read-out: Ratio IC50
[12] = Cytotoxicity against human L02 cells measured after 72 hrs
Histone deacetylase 1 = Histone deacetylase 1 (Homo sapiens, UniProt Q13547); assay: Inhibition of HDAC1 (unknown origin)
Chain of Histone deacetylase 1 (Q13547 whole entry): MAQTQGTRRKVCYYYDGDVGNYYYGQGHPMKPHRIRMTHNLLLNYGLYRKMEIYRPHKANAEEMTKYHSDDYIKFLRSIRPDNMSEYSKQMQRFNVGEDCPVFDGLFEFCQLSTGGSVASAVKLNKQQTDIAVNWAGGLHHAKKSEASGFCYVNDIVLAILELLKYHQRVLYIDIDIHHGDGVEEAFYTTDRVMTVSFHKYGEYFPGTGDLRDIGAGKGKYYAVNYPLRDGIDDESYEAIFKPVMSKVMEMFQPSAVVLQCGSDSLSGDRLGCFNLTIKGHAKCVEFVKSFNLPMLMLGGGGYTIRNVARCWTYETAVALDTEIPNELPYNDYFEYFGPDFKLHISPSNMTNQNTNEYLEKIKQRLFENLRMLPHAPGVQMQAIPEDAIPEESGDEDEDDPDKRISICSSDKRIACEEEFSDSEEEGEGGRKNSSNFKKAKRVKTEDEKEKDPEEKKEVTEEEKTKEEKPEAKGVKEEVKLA

Histone deacetylase 3 = Histone deacetylase 3 (Homo sapiens, UniProt O15379); assay: Inhibition of HDAC3 (unknown origin)
Chain of Histone deacetylase 3 (O15379 whole entry): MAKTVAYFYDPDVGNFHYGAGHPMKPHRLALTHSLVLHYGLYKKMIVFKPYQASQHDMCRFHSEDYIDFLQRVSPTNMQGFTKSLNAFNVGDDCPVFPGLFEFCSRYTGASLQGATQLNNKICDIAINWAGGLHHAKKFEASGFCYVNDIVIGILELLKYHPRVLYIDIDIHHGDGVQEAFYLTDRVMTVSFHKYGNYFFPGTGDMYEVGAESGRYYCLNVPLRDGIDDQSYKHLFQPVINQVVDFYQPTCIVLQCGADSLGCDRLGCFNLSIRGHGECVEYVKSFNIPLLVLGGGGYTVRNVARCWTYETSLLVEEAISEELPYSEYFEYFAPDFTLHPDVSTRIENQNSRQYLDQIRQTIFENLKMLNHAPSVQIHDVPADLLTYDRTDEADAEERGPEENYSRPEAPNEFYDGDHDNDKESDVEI

[13] = biological target: T1, Histone deacetylase 1/2/3 (Homo sapiens); assay: Inhibition of HDAC1/HDAC2/HDAC3 in human HCT-116 cells assessed as increase in accumulation of acetylated histone H4 measured after 48 hrs by Western blot analysis; type: cell-based; settings: dose 200-800 nM, DDE = dose-dependent effect
Homo sapiens [14] = species on record: Homo sapiens; assay: Selectivity ratio of IC50 for HDAC6 (unknown origin) to IC50 for HDAC2 (unknown origin)
Histone deacetylase 8 = biological target: T2, Histone deacetylase 8 (Homo sapiens, UniProt Q9BY41); assay: Inhibition of HDAC8 (unknown origin)
T2 sequence (Q9BY41 whole entry): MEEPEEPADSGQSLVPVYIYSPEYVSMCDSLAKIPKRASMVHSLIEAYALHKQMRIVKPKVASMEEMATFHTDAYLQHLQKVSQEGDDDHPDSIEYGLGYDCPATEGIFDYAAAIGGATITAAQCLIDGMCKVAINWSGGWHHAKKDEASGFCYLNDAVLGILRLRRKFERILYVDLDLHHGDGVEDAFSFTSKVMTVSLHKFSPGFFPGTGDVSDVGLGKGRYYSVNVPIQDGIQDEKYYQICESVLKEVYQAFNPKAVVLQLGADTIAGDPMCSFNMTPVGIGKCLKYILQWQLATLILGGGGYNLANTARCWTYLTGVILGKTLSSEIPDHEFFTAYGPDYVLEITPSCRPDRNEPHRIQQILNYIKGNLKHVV

HCT-116 [15] = assay: Inhibition of colony formation in human HCT-116 cells; type: functional, cell-based; settings: dose 50-200 nM, DDE = dose-dependent effect
[16] = biological target: T3, Protein deacetylase HDAC6 (Homo sapiens, UniProt Q9UBN7); assay: Inhibition of HDAC6 (unknown origin)
T3 sequence (Q9UBN7 whole entry): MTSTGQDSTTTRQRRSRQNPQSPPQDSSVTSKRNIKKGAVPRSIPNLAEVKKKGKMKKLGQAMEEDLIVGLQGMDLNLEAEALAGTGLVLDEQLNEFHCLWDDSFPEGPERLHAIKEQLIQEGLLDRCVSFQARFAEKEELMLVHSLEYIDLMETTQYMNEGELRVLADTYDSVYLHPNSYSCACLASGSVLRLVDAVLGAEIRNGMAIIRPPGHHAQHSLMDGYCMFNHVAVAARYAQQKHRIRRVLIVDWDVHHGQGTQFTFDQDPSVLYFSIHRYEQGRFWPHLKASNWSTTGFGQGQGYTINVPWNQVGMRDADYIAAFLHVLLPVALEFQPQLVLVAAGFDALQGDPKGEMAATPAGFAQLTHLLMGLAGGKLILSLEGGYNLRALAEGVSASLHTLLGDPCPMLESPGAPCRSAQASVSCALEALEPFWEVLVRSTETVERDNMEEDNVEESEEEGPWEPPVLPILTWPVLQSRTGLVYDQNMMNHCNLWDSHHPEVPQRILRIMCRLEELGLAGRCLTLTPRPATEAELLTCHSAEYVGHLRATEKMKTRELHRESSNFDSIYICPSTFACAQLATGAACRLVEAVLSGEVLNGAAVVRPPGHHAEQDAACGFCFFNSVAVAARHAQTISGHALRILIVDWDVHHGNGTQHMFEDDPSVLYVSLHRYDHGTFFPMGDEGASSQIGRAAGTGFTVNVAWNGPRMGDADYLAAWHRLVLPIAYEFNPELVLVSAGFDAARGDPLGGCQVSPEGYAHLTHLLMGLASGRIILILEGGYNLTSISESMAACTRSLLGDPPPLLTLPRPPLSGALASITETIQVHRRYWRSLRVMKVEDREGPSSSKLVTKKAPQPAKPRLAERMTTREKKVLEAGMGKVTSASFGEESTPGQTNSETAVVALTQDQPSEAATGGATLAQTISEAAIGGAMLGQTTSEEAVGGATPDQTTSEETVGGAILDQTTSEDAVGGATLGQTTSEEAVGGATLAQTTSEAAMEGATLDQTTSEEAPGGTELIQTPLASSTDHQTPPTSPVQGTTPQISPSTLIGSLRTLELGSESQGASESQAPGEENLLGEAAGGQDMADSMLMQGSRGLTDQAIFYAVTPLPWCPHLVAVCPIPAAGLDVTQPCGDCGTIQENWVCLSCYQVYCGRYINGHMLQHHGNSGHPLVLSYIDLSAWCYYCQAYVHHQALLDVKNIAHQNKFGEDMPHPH

Histone deacetylase 2 = Histone deacetylase 2 (Homo sapiens, UniProt Q92769); assay: Inhibition of HDAC2 (unknown origin)
Chain of Histone deacetylase 2 (Q92769 whole entry): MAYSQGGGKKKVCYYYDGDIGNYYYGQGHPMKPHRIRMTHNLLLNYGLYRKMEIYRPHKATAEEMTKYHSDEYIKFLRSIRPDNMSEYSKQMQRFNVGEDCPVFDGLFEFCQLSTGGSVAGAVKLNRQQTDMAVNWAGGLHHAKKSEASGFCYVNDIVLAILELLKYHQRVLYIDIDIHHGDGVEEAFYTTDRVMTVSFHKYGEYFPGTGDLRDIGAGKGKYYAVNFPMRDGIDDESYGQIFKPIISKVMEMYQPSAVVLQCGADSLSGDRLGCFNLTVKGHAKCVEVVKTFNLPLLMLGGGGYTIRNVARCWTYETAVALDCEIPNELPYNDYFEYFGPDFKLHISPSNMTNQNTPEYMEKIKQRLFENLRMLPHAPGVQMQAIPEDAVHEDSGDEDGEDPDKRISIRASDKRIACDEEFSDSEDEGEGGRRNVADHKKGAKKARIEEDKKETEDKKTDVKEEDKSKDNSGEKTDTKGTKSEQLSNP

HCT-116 [17] = assay: Induction of apoptosis in human HCT-116 cells measured after 48 hrs by Annexin-FITC/propidium iodide staining based flow cytometry; type: functional, cell-based; settings: dose 50-200 nM, DDE = dose-dependent effect

SMILES	IC50 (HCT-116 [1]) [µM]	IC50 (MCF7) [µM]	IC50 (A549) [µM]	IC50 (SW480) [µM]	also measured
Cc1[nH]c2ccccc2c1C1=CCN(Cc2ccc(OCC(=O)NO)cc2)CC1	0.301	1.59	0.615	0.697	–
O=C(COc1ccc(CNC2CC=C(c3c[nH]c4ccc(F)cc34)CC2)c(F)c1)NO (stereo not drawn)	0.261	1.42	0.304	0.179	–
O=C(COc1ccc(C(=O)N2CC=C(c3c[nH]c4ccc(F)cc34)CC2)cc1)NO	> 5	–	–	> 5	–
Cc1[nH]c2ccccc2c1C1=CCC(NCc2ccc(OCC(=O)NO)cc2)CC1 (stereo not drawn)	0.184	0.898	0.187	0.367	–
O=C(COc1ccc(CNCCn2cnc3ccccc32)c(F)c1)NO	0.41	0.539	–	–	–
Cc1[nH]c2cccc(F)c2c1C1=CCC(NCc2ccc(OCC(=O)NO)cc2F)CC1 (stereo not drawn)	0.254	1.18	0.244	–	–
Cc1[nH]c2ccccc2c1C1=CCC(NCc2ccc(OCC(=O)NO)cc2F)CC1 (stereo not drawn)	0.099	0.912	0.13	0.17	Activity (HCT-116 [2]): 91.5%; Ratio IC50 (Homo sapiens [3]): 3; inhibition [4]: Dde; Activity (HCT-116 [5]): Dde; Activity (HCT-116 [6]): Dde; Ratio IC50 (Homo sapiens [7]): 3; Activity (HCT-116 [8]): 81.8%; Activity (HCT-116 [9]): Dde; Activity (HCT-116 [10]): Active; selectivity ratio [11]: 20; IC50 at 72 h [12]: 2.3 µM; IC50 (Histone deacetylase 1): 0.0016 µM; IC50 (Histone deacetylase 3): 0.0038 µM; inhibition [13]: Dde; Ratio IC50 (Homo sapiens [14]): 3; IC50 (Histone deacetylase 8): 0.086 µM; inhibition (HCT-116 [15]): Dde; IC50 [16]: 0.013 µM; IC50 (Histone deacetylase 2): 0.0019 µM; Activity (HCT-116 [17]): Dde
O=C(COc1ccc(CNC2CC=C(c3c[nH]c4ccccc34)CC2)c(F)c1)NO (stereo not drawn)	0.436	1.17	0.278	1.15	–
O=C(COc1ccc(CNC2CC=C(c3c[nH]c4cccc(F)c34)CC2)c(F)c1)NO (stereo not drawn)	0.173	0.915	0.203	0.189	–
Cc1[nH]c2ccccc2c1C1=CCC(NC(=O)c2ccc(OCC(=O)NO)cc2)CC1 (stereo not drawn)	> 5	–	–	> 5	–
O=C(COc1ccc(CN2CC=C(c3c[nH]c4ccc(F)cc34)CC2)c(F)c1)NO	> 5	–	–	3.86	–
O=C(COc1ccc(CNCCc2c[nH]c3ccccc23)cc1Cl)NO	1.94	1.08	–	–	–
Cc1[nH]c2ccccc2c1C1=CCN(Cc2ccc(OCC(=O)NO)cc2F)CC1	1.22	–	–	1.6	–
O=C(COc1ccc(CN2CC=C(c3c[nH]c4cccc(F)c34)CC2)c(F)c1)NO	1.22	–	–	5.56	–
O=C(COc1ccc(CNCCc2c[nH]c3ccccc23)cc1F)NO	0.162	0.155	–	–	–

— ChEMBL document CHEMBL5113441, “Exploration of 4-(1H-indol-3-yl)cyclohex-3-en-1-amine analogues as HDAC inhibitors: Design, synthesis, biological evaluation and modelling studies” (Bioorg Med Chem Lett, 2022)
